Assay [1] has as its target ABL (Homo sapiens (Human), UniProt P00519). The assay can be described thus: Biochemical kinase analysis, ABL. The following applies: kinase inhibition assay. Here is the method:
(§1) Reagents and materials: ABL (ThermoFisher, Cat. No. PV3585), ABL^T315I(Thermo Fisher, Cat. No. PR7429B), Ret (Carna, Cat. No. 08-159-10 ug), RET^V804M, Active (Signalchem, Cat. No. R02-12GG), ATP (Sigma, Cat. No. A7699-1G), DMSO (Sigma, Cat. No. D2650), 96-well plate (Corning, Cat. No. 3365), 384-well plate (Greiner, Cat. No. 784076), buffer solution (Thermo Fisher, Cat. No. PR4876B).
(§2) Compound formulation: The test compounds were dissolved in DMSO to prepare a 20 mM stock solution. Before use, the compounds were diluted in DMSO to 0.1 mM, and diluted into 11 concentrations with a 3-fold gradient. When addition, dilutions of 4-fold final concentration were then made with buffer solution.
(§3) Kinase assay method: After preparing the buffer, the enzyme was mixed with pre-formulated and diluted compounds of different concentrations in duplicate for each concentration, and placed at room temperature for 30 minutes. The corresponding substrate and ATP were added thereto, and reacted at room temperature for 60 minutes (both a negative and a positive control were set). After the reaction, antibody was added for detection, Evnvision detection was carried out after 60 minutes incubation at room temperature, and data was collected. Data analysis and fitting were made according to XLfit5 software.

Assay [2] addresses ABL^T315I (Homo sapiens (Human), UniProt P00519, T315I). Briefly: Biochemical kinase analysis, ABL T315I. The conditions noted are these: kinase inhibition assay. On the procedure: as §1, §2, §3
The target in assay [3] is Ret (Homo sapiens (Human), UniProt P07949). The assay can be described thus: Biochemical kinase analysis, Ret. The conditions noted are these: kinase inhibition assay. Here is the method:
as §1, §2, §3

The target in assay [4] is RET^V804M (Homo sapiens (Human), UniProt P07949, V804M). Briefly: Biochemical kinase analysis, RET V804M. The conditions noted are these: kinase inhibition assay. On the procedure: as §1, §2, §3
Assay [5] concerns Ba/F3 parental cells. The assay can be described thus: Cell proliferation analysis, Ba/F3 parental. In kind it is cell-based. The conditions noted are these: Mus musculus, BaF3, 72 h; 3 days, CellTiter-Glo, 8 ng/ml IL-3. Here is the method: (§4) The inhibitory effect of the example compounds on Ba/F3 parental, Ba/F3 Bcr-Abl^T315I, K562, Ba/F3 KIF5B-RET, BaF3 FLT3-ITD cell activity was determined.
(§5) Materials and reagents: RPMI-1640 medium (GIBCO, Catalog No. A10491-01), fetal bovine serum (GIBCO, Catalog No. 10099141), antibiotics (Penicillin-Streptomycin), IL-3(PeproTech), promycin; cell lines: Ba/F3 parental, Ba/F3 Bcr-Abl^T315I, Ba/F3 KIF5B-RET, BaF3 FLT3-ITD, (purchased from American type culture collection, ATCC), K562 live cell detection kit CellTiter-Glo4(Promega, Catalog No. G7572), 96-well black wall transparent flat bottom cell culture plate (Corning, Catalog No. 3340).
(§6) Test method: 1. Preparation of cell plate: Ba/F3 parental, Ba/F3 Bcr-Abl^T315I K563, Ba/F3 KIFSB-RET, BaF3 FLT3-ITD cells were respectively seeded in 96-well plates, and 8 ng/ml IL-3 was added to the Ba/F3 cells, and the cell plates were placed in a carbon dioxide incubator and cultured overnight. 2. The test compounds were dissolved in DMSO, 9 compound concentrations were made with a 3.16-fold gradient dilution in triplicate. 3. Treatment of the cells with compounds: The compounds were transferred to the cell plate with a starting concentration of 10 μM. The cell plate was placed in a carbon dioxide incubator for 3 days. 4. Detection: CellTiter-Glo agent was added to the cell plate, and incubated at room temperature for 30 minutes to stabilize the luminous signal. PerkinElmer Envision multi-label analyzer was used for reading, wherein A represents IC50≤50 nM, B represents IC50 is 50-100 nM, C represents IC50 is 100-500 nM, D represents IC50 is 500-1000 nM, […].
(Cellular ATP, detected with luciferase, serves as a proxy for viable cell number.)

The subject of assay [6] is K562 cells. Briefly: Cell proliferation analysis, K562. In kind it is cell-based. The conditions noted are these: Homo sapiens, K562, 72 h; 3 days, CellTiter-Glo. Here is the method:
as §4, §5, §6

The subject of assay [7] is Ba/F3 BCR-ABL cells. Briefly: Cell proliferation analysis, Ba/F3 BCR-ABL. In kind it is cell-based. The conditions noted are these: Mus musculus, BaF3, 72 h; 3 days, CellTiter-Glo. Here is the method: [Worded in the source for another variant; this variant is reported under the same test.] as §4, §5, §6
Assay [8] has as its system Ba/F3 Bcr-Abl^T315I cells. Briefly: Cell proliferation analysis, Ba/F3 Bcr-Abl T315I. In kind it is cell-based. The conditions noted are these: Mus musculus, BaF3, 72 h; 3 days, CellTiter-Glo; read-out: IC50 (nM) Ba/F3 BCR-ABL^T315. On the procedure: as §4, §5, §6
The test system of assay [9] is Ba/F3 KIF5B-RET cells. The assay can be described thus: Cell proliferation analysis, Ba/F3 KIF5B-RET. The following applies: Mus musculus, BaF3, 72 h; 3 days, CellTiter-Glo. In kind it is cell-based. Here is the method:
as §4, §5, §6

The subject of assay [10] is BaF3 FLT3-ITD cells. The assay can be described thus: Cell proliferation analysis, BaF3 FLT3-ITD. The conditions noted are these: Ba/F3 FLT3-ITD, 72 h; 3 days, CellTiter-Glo. Format: cell-based. Here is the method:
as §4, §5, §6

RET^V804M, sequence (P07949 29-1114 V804M): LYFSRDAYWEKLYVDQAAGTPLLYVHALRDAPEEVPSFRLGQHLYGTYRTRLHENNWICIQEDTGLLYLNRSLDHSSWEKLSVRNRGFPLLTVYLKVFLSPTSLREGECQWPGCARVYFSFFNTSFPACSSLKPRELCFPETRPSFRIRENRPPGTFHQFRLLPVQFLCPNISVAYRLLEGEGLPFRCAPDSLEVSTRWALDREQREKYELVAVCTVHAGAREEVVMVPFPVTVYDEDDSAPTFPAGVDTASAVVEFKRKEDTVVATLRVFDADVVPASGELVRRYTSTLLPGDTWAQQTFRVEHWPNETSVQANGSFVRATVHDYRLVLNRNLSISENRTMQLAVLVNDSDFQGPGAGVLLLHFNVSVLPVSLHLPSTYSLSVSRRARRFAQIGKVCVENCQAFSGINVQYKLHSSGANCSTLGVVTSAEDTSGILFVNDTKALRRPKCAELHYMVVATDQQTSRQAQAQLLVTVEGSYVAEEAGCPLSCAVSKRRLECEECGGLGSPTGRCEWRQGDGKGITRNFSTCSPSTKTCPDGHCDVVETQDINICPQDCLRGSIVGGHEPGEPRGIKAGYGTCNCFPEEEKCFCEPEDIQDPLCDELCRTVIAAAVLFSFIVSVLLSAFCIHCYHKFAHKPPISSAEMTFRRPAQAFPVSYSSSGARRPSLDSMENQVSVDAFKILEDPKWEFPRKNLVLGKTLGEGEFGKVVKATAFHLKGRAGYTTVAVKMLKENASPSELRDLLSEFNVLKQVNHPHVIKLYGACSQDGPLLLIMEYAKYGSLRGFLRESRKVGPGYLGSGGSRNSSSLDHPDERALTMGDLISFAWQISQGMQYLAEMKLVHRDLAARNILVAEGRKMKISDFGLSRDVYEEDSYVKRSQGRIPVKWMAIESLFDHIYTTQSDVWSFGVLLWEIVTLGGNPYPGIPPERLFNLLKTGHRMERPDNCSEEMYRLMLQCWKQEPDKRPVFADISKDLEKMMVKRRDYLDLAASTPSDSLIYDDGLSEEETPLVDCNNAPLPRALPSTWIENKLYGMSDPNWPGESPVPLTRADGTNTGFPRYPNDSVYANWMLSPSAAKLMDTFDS
Ret, sequence (P07949 29-1114): as the sequence (P07949 29-1114 V804M) above, with M776V counted along it

As for `Cc1ccc(NC(=O)c2cccc(C(F)(F)F)c2)cc1C#Cc1cnc2c(Nc3cnn(C)c3)nccn12` [Example 1, N-(4-methyl-3-((8-((1-methyl-1H-pyrazol-4-yl)amino)imidazo[1,2-a]pyrazin-3-yl)ethynyl)phenyl)-3-(trifluoromethyl)benzamide], the IC50 in assay [1] was determined as 3.91 nM; in assay [2] it was 9.05 nM; in assay [3] it was 0.88 nM; in [4] it was 12.2 nM; in assay [5], 838 nM; in [6], 0.28 nM. In addition, the IC50 in [7] stood at 5.63 nM; in assay [8], 15 nM; in assay [9], 10.1 nM; in assay [10], 17.7 nM.
Consider `Cc1ccc(C(=O)Nc2cccc(C(F)(F)F)c2)cc1C#Cc1cnc2c(Nc3cnn(C)c3)nccn12` [Example 2, 4-methyl-3-((8-((1-methyl-1H-pyrazol-4-yl)amino)imidazo[1,2-a]pyrazin-3-yl)ethynyl)-N-(3-(trifluoromethyl)phenyl)benzamide], for which the IC50 was 6.65 nM in assay [1]; 10.1 nM in assay [2]; 0.32 nM in assay [3]; 2.69 nM in [4]; 945 nM in assay [5]; 0.5 nM in [6]. For the same molecule, the IC50 in [7] was found to be 5.1 nM; in assay [8], 17 nM; in [9] it was 6.02 nM; in [10], 10 nM.
Take `Cc1cn(-c2cc(C(=O)Nc3ccc(C)c(C#Cc4cnc5c(Nc6cnn(C)c6)nccn45)c3)cc(C(F)(F)F)c2)cn1` [Example 4, 3-(4-methyl-1H-imidazol-1-yl)-N-(4-methyl-3-((8-((1-methyl-1H-pyrazol-4-yl)amino)imidazo[1,2-a]pyrazin-3-yl)ethynyl)phenyl)-5-(trifluoromethyl)benzamide]: the IC50 turned out to be 4.93 nM in [1]; 7.69 nM in assay [2]; 314 nM in assay [5]; 3.8 nM in assay [6]; 19.7 nM in assay [7]; 50.2 nM in assay [8].
As to `Cc1ccc(NC(=O)c2ccc(CN3CCN(C)CC3)c(C(F)(F)F)c2)cc1C#Cc1cnc2c(Nc3cnn(C)c3)nccn12` [Example 5, N-(4-methyl-3-((8-((1-methyl-1H-pyrazol-4-yl)amino)imidazo[1,2-a]pyrazin-3-yl)ethynyl)phenyl)-4-((4-methylpiperazin-1-yl)methyl)-3-(trifluoromethyl)benzamide], the IC50 in assay [1] amounted to 3.33 nM; in [2], 3.44 nM; in [5] it was 340 nM; in [6], 1.32 nM; in [7] it was 10.6 nM; in [8], 88 nM.
On to `Cc1ccc(NC(=O)c2cc(C(C)(C)C)on2)cc1C#Cc1cnc2c(Nc3cnn(C)c3)nccn12` [Example 6, 5-(tert-butyl)-N-(4-methyl-3-((8-((1-methyl-1H-pyrazol-4-yl)amino)imidazo[1,2-a]pyrazin-3-yl)ethynyl)phenyl)isoxazole-3-carboxamide], for which the IC50 in assay [1] came out at 1.6 nM; in assay [2], 65 nM; in assay [5], 5230 nM; in [6], 6.56 nM; in assay [7], 9.61 nM.
For the molecule `Cc1ccc(NC(=O)Nc2ccc(Cl)c(C(F)(F)F)c2)cc1C#Cc1cnc2c(Nc3cnn(C)c3)nccn12` [Example 7, 1-(4-chloro-3-(trifluoromethyl)phenyl)-3-(4-methyl-3-((8-((1-methyl-1H-pyrazol-4-yl)amino)imidazo[1,2-a]pyrazin-3-yl)ethynyl)phenyl)urea], the IC50 in assay [5] turned out to be 620 nM; in [6], 4.53 nM; in [8], 291 nM.
With `COCCn1cc(Nc2nccn3c(C#Cc4cc(NC(=O)c5cccc(C(F)(F)F)c5)ccc4C)cnc23)cn1` [Example 8, N-(3-((8-((1-(2-methoxyethyl)-1H-pyrazol-4-yl)amino)imidazo[1,2-a]pyrazin-3-yl)ethynyl)-4-methylphenyl)-3-(trifluoromethyl)benzamide], the IC50 is 2.55 nM in assay [1]; 6.47 nM in assay [2]; 927 nM in assay [5]; 0.96 nM in assay [6]; 6.29 nM in assay [7]; 35.8 nM in assay [8].
On to `COCCn1cc(Nc2nccn3c(C#Cc4cc(NC(=O)c5ccnc(C(F)(F)F)c5)ccc4C)cnc23)cn1` [Example 9, N-(3-((8-((1-(2-methoxyethyl)-1H-pyrazol-4-yl)amino)imidazo[1,2-a]pyrazin-3-yl)ethynyl)-4-methylphenyl)-2-(trifluoromethyl)isonicotinamide], for which the IC50 was 0.93 nM in assay [1]; 19.9 nM in assay [2]; 4280 nM in [5]; 0.32 nM in assay [6]; 2.75 nM in assay [7].
With `COCCn1cc(Nc2nccn3c(C#Cc4cc(NC(=O)c5cc(C(C)(C)C)on5)ccc4C)cnc23)cn1` [Example 10, 5-(tert-butyl)-N-(3-((8-((1-(2-methoxyethyl)-1H-pyrazol-4-yl)amino)imidazo[1,2-a]pyrazin-3-yl)ethynyl)-4-methylphenyl)isoxazole-3-carboxamide], the IC50 in assay [1] was 2.7 nM; in assay [5], 2680 nM; in [6], 1.27 nM; in [7], 17.3 nM; in assay [8], 56.1 nM.
As to `Cc1ccc(NC(=O)c2cccc(C(F)(F)F)c2)cc1C#Cc1cnc2c(Nc3cnn(C)c3)ccnn12` [Example 11, N-(4-methyl-3-((8-((1-methyl-1H-pyrazol-4-yl)amino)imidazo[1,2-b]pyridazin-3-yl)ethynyl)phenyl)-3-(trifluoromethyl)benzamide], the IC50 in [1] was 4.18 nM; in assay [2], 57.2 nM; in assay [5], 770 nM; in assay [6], 0.26 nM; in assay [7], 4.76 nM; in [8] it was 144 nM.
As to `Cc1ccc(NC(=O)c2ccnc(C(F)(F)F)c2)cc1C#Cc1cnc2c(Nc3cnn(C)c3)ccnn12` [Example 12, N-(4-methyl-3-((8-((1-methyl-1H-pyrazol-4-yl)amino)imidazo[1,2-b]pyridazin-3-yl)ethynyl)phenyl)-2-(trifluoromethyl)isonicotinamide], the IC50 in assay [1] came to 2.24 nM; in assay [5], 1890 nM; in [6], 0.27 nM; in assay [7], 7.75 nM.
On to `Cc1ccc(NC(=O)c2ccc(C)c(C(F)(F)F)c2)cc1C#Cc1cnc2c(Nc3cnn(C)c3)ccnn12` [Example 13, 4-methyl-N-(4-methyl-3-((8-((1-methyl-1H-pyrazol-4-yl)amino)imidazo[1,2-b]pyridazin-3-yl)ethynyl)phenyl)-3-(trifluoromethyl)benzamide], for which the IC50 in assay [1] came out at 9.88 nM; in [2] it was 67.2 nM; in [5] it was 1220 nM; in [6], 1.3 nM; in [7], 15.6 nM; in assay [8], 162 nM.
As to `Cc1ccc(NC(=O)Nc2ccc(Cl)c(C(F)(F)F)c2)cc1C#Cc1cnc2c(Nc3cnn(C)c3)ccnn12` [Example 16, 1-(4-chloro-3-(trifluoromethyl)phenyl)-3-(4-methyl-3-((8-((1-methyl-1H-pyrazol-4-yl)amino)imidazo[1,2-b]pyridazin-3-yl)ethynyl)phenyl)urea], the IC50 in assay [5] turned out to be 1370 nM; in assay [6] it was 12.1 nM.

The values are drawn from patent US11746110B2, “Alkynyl (hetero) aromatic ring compounds used for inhibiting protein kinase activity” (Shenzhen TargetRx, Inc., priority 2018, dated 2023).
